According to patent US20150250785A1, “Tropomyosin-Related Kinase Inhibitors” (PFIZER LIMITED, priority 2012, published 2015):
pIC50: −log10 of the molar value.

The molecules below were run against T1, TRKA (NTRK1) recombinant His-tagged cytoplasmic domain aa 441-796 (Homo sapiens, UniProt P04629) (assay: Isolated TRK enzyme assay (HTRF KinEASE-TK), PV3144 TrkA). Settings: 4 nM enzyme, 40 uM ATP, 35 min, arithmetic mean where more than one reading.
T1 construct: aa 441-; 4 nM; 40 uM; 35 min; (NTRK1); 796; His; purchased Invitrogen PV3144
T1 sequence (P04629 441-796): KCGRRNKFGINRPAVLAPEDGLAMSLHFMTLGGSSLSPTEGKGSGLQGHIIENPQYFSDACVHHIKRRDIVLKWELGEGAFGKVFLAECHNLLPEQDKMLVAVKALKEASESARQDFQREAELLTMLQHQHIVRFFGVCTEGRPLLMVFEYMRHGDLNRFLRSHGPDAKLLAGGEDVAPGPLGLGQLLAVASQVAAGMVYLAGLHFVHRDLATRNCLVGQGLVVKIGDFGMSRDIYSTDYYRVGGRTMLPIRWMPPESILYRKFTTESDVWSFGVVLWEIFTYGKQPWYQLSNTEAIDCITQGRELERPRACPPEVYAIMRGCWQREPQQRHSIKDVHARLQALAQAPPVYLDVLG
Assay type: biochemical
Description: Isolated TRK Enzyme assays use the HTRF KinEASE-TK kit (Cisbio Cat#62TK0PEJ) with recombinant His-tagged cytoplasmic domains of each TRK receptor sourced from Invitrogen (see table below). This activity-assay measures the phosphorylation of tyrosine residues within a substrate from the HTRF kit which has been validated by Cisbio for a variety of tyrosine kinases including the TRK receptors.
0.5 mM stock solutions of test compounds are prepared and serially diluted in 100% DMSO. A standard curve using the compound of Example 135 disclosed in WO2005/116035 of 150 uM is also prepared on each test plate. High percentage effect (HPE) is defined by 150 uM (using the compound of Example 135 as disclosed in WO2005/116035) and 0% effect (ZPE) is defined by 100% DMSO. Greiner low volume black plates containing 0.2 ul of serially diluted compound, standard and HPE/ZPE are created using the Bravo nanolitre dispenser.
1× enzyme buffer is prepared from 5× Enzymatic Buffer from the Cisbio KinEASE TK kit using MilliQ water. The buffer is then supplemented with 10 mM MgCl and 2 mM DTT (both from Sigma). In the case of TRKB, the buffer is also supplemented with 125 nM Supplement Enzymatic Buffer (SEB) from the Cisbio kit.
2×FAC of enzyme and 2×FAC ATP diluted in 1× complete enzyme buffer is incubated at room temperature for 20 minutes to preactivate the enzyme. Following this preactivation step, 5 ul/well of enzyme+ATP mix is added using a Multidrop Micro to the assay plate, spotted with 0.2 ul 100% DMSO compound. […]
After the Detection Reagent addition, plates are covered and incubated at room temperature for 60 minutes. HTRF signal is read using an Envision reader, measured as a ratio of emissions at two different wavelengths, 620 nm and 665 nm. […] Test compound data are expressed as percentage inhibition defined by HPE and ZPE values for each plate. […]
Below are TrkA IC50 data generated using the PV3144 TrkA enzyme assay. Where more than one reading was taken, the arithmetic mean is presented.
Molecule `CC(C)n1nc(C(=O)c2ccnc(NC(=O)Cc3coc(C4CC4)n3)c2)c2cnccc21` [Example 1, 2-(2-cyclopropyl-1,3-oxazol-4-yl)-N-{4-[(1-isopropyl-1H-pyrazolo[4,3-c]pyridin-3-yl)carbonyl]pyridin-2-yl}acetamide] has a pIC50 of 7.68. `CC(C)n1nc(C(=O)c2ccnc(NC(=O)Cc3ccc(C#N)cc3)c2)c2cnccc21` [Example 2, 2-(4-cyanophenyl)-N-{4-[(1-isopropyl-1H-pyrazolo[4,3-c]pyridin-3-yl)carbonyl]pyridin-2-yl}acetamide] was tested, and the pIC50 was 7.69. With `CC(C)c1nc(C(=O)c2ccnc(NC(=O)Cn3ccc(C(F)(F)F)n3)c2)c2cnccn12` [Example 3, N-{4-[(3-isopropylimidazo[1,5-a]pyrazin-1-yl)carbonyl]pyridin-2-yl}-2-[3-(trifluoromethyl)-1H-pyrazol-1-yl]acetamide] the pIC50 was 7.78.
